# Results reported in patent publication US20110283416A1, “METHODS FOR PLANT FIBER CHARACTERIZATION AND IDENTIFICATION” (LE CENTRE NATIONAL DE LA RECHERCHE SCIENTIFIQUE, priority 2008, published 2011).
# Read-outs that look alike come from different tables or passages of the source.
# Experiments:
# CYP77A4 [1] = molecular target: T1, CYP77A4 (Arabidopsis thaliana, UniProt Q9LZ31); conditions: for amount of conversion of fatty acid / conversion as substrate of CYP77A4 (in words): 100 μM fatty acid, 10 pmole CYP77A4, 27° C., 15 minutes (FIG. 4); for epoxide product formed by CYP77A4 (GC-MS identification): 100 μM substrate, 15-20 min
# T1 sequence (Q9LZ31 1-512): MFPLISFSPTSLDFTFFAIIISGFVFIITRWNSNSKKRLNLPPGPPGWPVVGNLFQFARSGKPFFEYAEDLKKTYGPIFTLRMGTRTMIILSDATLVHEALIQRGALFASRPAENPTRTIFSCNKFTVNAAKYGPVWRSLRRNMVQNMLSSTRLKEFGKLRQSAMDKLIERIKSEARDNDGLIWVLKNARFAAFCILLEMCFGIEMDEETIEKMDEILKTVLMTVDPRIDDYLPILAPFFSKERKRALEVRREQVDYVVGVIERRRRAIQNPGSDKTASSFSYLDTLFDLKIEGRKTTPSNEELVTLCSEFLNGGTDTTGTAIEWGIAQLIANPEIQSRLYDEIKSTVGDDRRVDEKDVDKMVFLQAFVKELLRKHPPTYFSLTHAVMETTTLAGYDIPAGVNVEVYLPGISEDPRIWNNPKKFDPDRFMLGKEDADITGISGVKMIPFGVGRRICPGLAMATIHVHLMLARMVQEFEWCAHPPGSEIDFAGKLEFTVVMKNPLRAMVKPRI
# CYP77A4 [2] = molecular target: T1, CYP77A4; assay type: biochemical; conditions: 4.5 pmoles CYP77A4, 5 min, calculated with Enzyme Kinetics (Sigma Plot); for Km: read-out: Km for metabolism by CYP77A4
# CYP77A4 expression [3] = conditions: in vivo
# CYP77A4 expression [4] = experiment: Induction of CYP77A4 expression by external factors, quantitative PCR on entire plantlets; conditions: after 5 hours; ethanol as control; qPCR (FIG. 3)
# [5] = GC-MS analysis of metabolite fraction
# [6] = 27° C., 10 pmole CYP77A4, NADPH
# [7] = 100 μM, 15 minutes, 27° C., 10 pmole CYP77A4, NADPH
SMILES,amount of conversion of fatty acid (CYP77A4 [1]),conversion as substrate of CYP77A4 (in words) (CYP77A4 [1]),epoxide product formed by CYP77A4 (GC-MS identification) (CYP77A4 [1]; [6]),Vmax for metabolism by CYP77A4 (CYP77A4 [2]) [nmol·min^−1·nmol^−1 P450],Km (CYP77A4 [2]) [µM],also measured
"CCCCCCCCCCCC(=O)O [C12:0, lauric acid]",about 35%,optimal substrate,–,–,–,share of omega-1 hydroxylated metabolite (CYP77A4 [1]; [5]): 53%; share of omega-2 hydroxylated metabolite (CYP77A4 [1]; [5]): 15.2%; share of omega-3 hydroxylated metabolite (CYP77A4 [1]; [5]): 7.6%; share of omega-4 hydroxylated metabolite (CYP77A4 [1]; [5]): 18.2%; share of omega-5 hydroxylated metabolite (CYP77A4 [1]; [5]): 6%
CCCCC/C=C\C/C=C\CCCCCCCC(=O)O [linoleic acid],–,increasing order of conversion,12-13 epoxy form of linolenic acid,13±0.3,61 ± 3,–
CC/C=C\C/C=C\C/C=C\CCCCCCCC(=O)O [linolenic acid],about 20%,increasing order of conversion,–,–,29 ± 4,share of 12-13 mono-epoxy form among mono-epoxy products (CYP77A4 [1]; [7]): 87%; share of each of the other two mono-epoxy structures (CYP77A4 [1]; [7]): 6.5%
OC[C@@H](O)[C@@H](O)[C@H](O)[C@H](O)CO [mannitol],–,–,–,–,–,induction of the expression of CYP77A4 (CYP77A4 expression [3]): ~20 fold; induction of the transcription of CYP77A4 (CYP77A4 expression [3]): 18 fold
CCCCCCCC/C=C\CCCCCCCC(=O)O [oleic acid],–,increasing order of conversion,"epoxy form (at position 9, 10) of oleic acid",26±5,–,–
CCC1(c2ccccc2)C(=O)NC(=O)NC1=O [phenobarbital],–,–,–,–,–,induction of the expression of CYP77A4 (CYP77A4 expression [4]): 12 fold
